In data set [1] the test system is Enterococcus faecalis ATCC 7080. In words: Biofilm formation in vitro, crystal violet assay. The following applies: for reduction of biofilm formation versus control: 24 hours, 37° C., FIG. 1B. The data set is classed as cell-based. On the procedure:
(§1) FIG. 1: The effect of varying concentrations of DHA on the ability of Klebsiella pneumoniae NCIMB 418 (A) and Enterococcus faecalis ATCC 7080 (B) to form a biofilm in vitro. (10^6 CFU/well was incubated with various concentrations of DHA in a 96 well plate for 24 hours statically at 37° C. Biofilm formation was assessed using the crystal violet assay. Data represents the mean±SD for six independent experiments, carried out in triplicate. One-way ANOVA was performed for statistical analysis. *****P<0.001 compared to both the control (no DHA) and vehicle control (1% DMSO).
The effect of varying concentrations of DHA on the ability of Klebsiella pneumoniae NCIMB 418 and Enterococcus faecalis ATCC 7080 to form a biofilm in vitro was investigated. 10^6 CFU/well was incubated with various concentrations of DHA in a 96 well plate for 24 hours statically at 37° C. Biofilm formation was assessed using the crystal violet assay. Data represents the mean±SD for six independent experiments, carried out in triplicate. The assay involves seeding cells at 10^^6 CFU/ml in media with DHA. Cells were then left for 24 hrs to form biofilms before washing and staining with Crystal Violet. Crystal violet adheres to cells stuck to the sides of the tube/well. The samples is washed again to remove any unbound dye before dissolving the stain in acetic acid and measuring the reading in a spectrophotometer. The colour intensity relates to the level of biofilm present. The more colour the more bacteria in the biofilm. Merritt, J. H., Kadouri, D. E. and O'Toole, G. A. (2005) ‘Growing and Analyzing Static Biofilms’, Current Protocols in Microbiology, Chapter 1(Jul), p. Unit 1B.1.

Data set [2] has as its system human gingival fibroblasts (HGFs). On the set-up: dose or concentration left out as unconfirmed. The following applies: exposed for 24 and 48 hours; cited from earlier work.
Data set [3] has as its system human periodontal ligament cells (hPDLCs). On the set-up: dose or concentration left out as unconfirmed. The following applies: exposed for 24 and 48 hours; cited from earlier work.
Data set [4] has as its system Klebsiella pneumoniae NCIMB 418. In words: Biofilm formation in vitro, crystal violet assay. Type of data set: cell-based. The note with it: for reduction of biofilm formation versus control: 24 hours, 37° C., FIG. 1A. The protocol:
as §1
FIG. 2: Comparing DNA (16 μM) and Erythromycin (4 μg/ml) individually and adjunct for antibiofilm effects against Klebsiella pneumoniae NCIMB 481 in vitro. 10^6 CFU/well was incubated with each well of a 96 well plate for 24 hours statically at 37° C. Biofilm formation was assessed using the crystal violet assay. Data represents the mean±SD for four independent experiments, carried out in triplicate. One-way ANOVA was performed for statistical analysis. *****P<0.001 compared to both the control (no DHA or Erythromycin), vehicle control (1% DMSO), DHA (16 μM) and Erythromycin (4 μg·mL).
The effect of varying concentrations of DHA on the ability of Klebsiella pneumoniae NCIMB 418 and Enterococcus faecalis ATCC 7080 to form a biofilm in vitro was investigated. 10^6 CFU/well was incubated with various concentrations of DHA in a 96 well plate for 24 hours statically at 37° C. Biofilm formation was assessed using the crystal violet assay. Data represents the mean±SD for six independent experiments, carried out in triplicate. The assay involves seeding cells at 10^^6 CFU/ml in media with DHA. […] The samples is washed again to remove any unbound dye before dissolving the stain in acetic acid and measuring the reading in a spectrophotometer. […]
The effects of DHA (16 μM) and Erythromycin (4 μg/ml) were compared individually and adjunct for antibiofilm effects against Klebsiella pneumoniae NCIMB 481 in vitro. […] Biofilm formation was assessed using the crystal violet assay. […]

Where [5] appears, read: summary of FIG. 1, concentration not stated.

SMILES strings stand for the structures.

Regarding `CC/C=C\C/C=C\C/C=C\C/C=C\C/C=C\C/C=C\CCC(=O)O` [DHA, docosahexaenoic acid], the “reduction of biofilm formation versus control” value is listed as roughly 20% in data set [1] (DHA 6.25 μM), roughly 65% in data set [1] (DHA 100 μM), roughly 40% in data set [4] (DHA 6.25 μM) and roughly 65% in data set [4] (DHA 100 μM). For the same compound, the reducing biofilm formation entry in data set [1] (setting [5]) and in data set [4] (setting [5]) was “approximately 60%” in each case. Further, the cytotoxic effects entry in data set [2] and in data set [3] was “cytotoxic effects” each time.

The record behind these values is patent US12661333B2, “Composition for use in treatment of a biofilm in a subject” (TECHNOLOGICAL UNIVERSITY DUBLIN, priority 2020, dated 2026).
